Test results published in patent US20160318928A1, “TRICYCLIC COMPOUNDS AS ANTICANCER AGENTS” (BRISTOL-MYERS SQUIBB COMPANY, priority 2013, published 2016).

Experiments:
[1] = test system: JJN3R multiple myeloma cell line; assay: Human tumor xenograft model in mice, JJN3R; assay type: in vivo; conditions: Mus musculus, JJN-3R, po, QDx7, read-out: % TGI
From the text: (§1) Human Tumor Xenograft Models in Mice
(§2) All rodents were obtained from Jackson Laboratory. (Bar Harbor, Me.), and maintained in an ammonia-free environment in a defined and pathogen-free colony. All mice were quarantined approximately 1 week prior to their use for tumor propagation and drug efficacy testing. Mice were fed food and water ad libitum. The animal care program of Bristol-Myers Squibb Pharmaceutical Research Institute is fully accredited by the American Association for Accreditation of Laboratory Animal Care (AAALAC). All experiments were performed in accordance with Bristol-Myers Squibb (BMS) animal test methods and guidelines.
(§3) Tumor xenografts were grown and maintained subcutaneously (SC) in NSG (NOD scid IL2 receptor gamma chain knockout) mice (Jackson Lab). Tumors were propagated as subcutaneous transplants using tumor fragments obtained from donor mice.
(§4) Preclinical Chemotherapy Trials
(§5) The required numbers of animals needed to detect a meaningful response were pooled at the start of the experiment and each was given bilateral subcutaneous implants of two tumor fragments (˜20 mg) with a 13-gauge trocar. Tumors were allowed to grow to the pre-determined size window (tumors outside the range were excluded) and animals were evenly distributed to various treatment and control groups. There were typically 6-8 mice per treatment and control groups, consisting of 10-12 tumors. Treatment of each animal was based on individual body weight. Treated animals were checked daily for treatment related toxicity/mortality. Each group of animals was weighed before the initiation of treatment (WO and then again following the last treatment dose (Wt2). The difference in body weight (Wt2-Wt1) provides a measure of treatment-related toxicity.
(§6) Tumor response was determined by measurement of tumors with a caliper twice a week, until the tumors reached a predetermined “target” size of 0.5 gm or 1 gm depending on the tumor type. Tumor weights (mg) were estimated from the formula:
(§7) Tumor weight=(length×width^2)÷2
(§8) Tumor response criteria are expressed in terms of tumor growth inhibition (% TGI). Tumor growth delay is defined as the difference in time (days) required for the treated tumors (T) to reach a predetermined target size compared to those of the control group (C). For this purpose, the tumor weight of a group is expressed as medium tumor weight (MTW).
(§9) Tumor growth inhibition is calculated as follows:
(§10) where, Ct=Median control tumor size at end of treatment C0=Median control tumor size at treatment initiation Tt=Median tumor size of treated group at end of treatment T0=Median tumor size of treated group at treatment initiation
(§11) Tumor response was also expressed in terms of tumor growth delay and expressed as log cell kill (LCK value), defined as the difference in time (days) required for the treated tumors (T) to reach a predetermined target size compared to those of the control group (C).
(§12) Whenever possible, antitumor activity was determined at a range of dose levels up to the maximum tolerated dose (MTD) which is defined as the dose level immediately […] which excessive toxicity (i.e. more than one death) occurred. When death occurred, the day of death was recorded. Treated mice dying prior to having their tumors reach target size were considered to have died from drug toxicity. No control mice died bearing tumors less than target size. Treatment groups with more than one death caused by drug toxicity were considered to have had excessively toxic treatments and their data were not included in the evaluation of a compound's antitumor efficacy.
(§13) For administration of BET inhibitors to rodents, compounds were dissolved in […]/10% TPGS/10% Ethanol. BET inhibitors were typically administered orally on a schedule of QDx7 or QDx10 (5 day-on-2 day-off), although other schedules had also been evaluated and shown to be efficacious

[2] = test system: H187 Human Small Cell Carcinoma; assay: Human tumor xenograft model in mice, H187; assay type: in vivo
From the text: as §1, §2, §3, §4, §5, §6, §7, §8, §9, §10, §11, §12, §13

BRD4 = BRD4 (Homo sapiens, UniProt O60885); assay: Time resolved fluorescence resonance energy transfer (TR-FRET) binding assay, BRD4 bromodomain; conditions: one of the FRET assays described

Row | Compound | inhibition in vivo at 1 mg/kg [1] [%] | inhibition in vivo at 4 mg/kg [1] [%] | other results
1 | [2H]C([2H])([2H])c1nnn(C)c1-c1cnc2c3ccc([C@@](C)(O)C4CC4)c(F)c3n([C@H](c3ccccc3)C3CCOCC3)c2c1 [Example 433, (1 S)-1-cyclopropyl-1-{6-fluoro-3-[4-(^2H3)methyl-1-methyl-1H-1,2,3-triazol-5-yl]-5-[(S)-oxan-4-yl(phenyl)methyl]-5H-pyrido[3,2-b]indol-7-yl}ethan-1-ol] | 54 | – | –
2 | [2H]C([2H])([2H])c1nnn(C)c1-c1cnc2c3ccc(S(C)(=O)=O)cc3n([C@H](c3ccccc3)C3CCOCC3)c2c1 [Example 263, 5-{7-Methanesulfonyl-5-[(S)-oxan-4-yl(phenyl)methyl]-5H-pyrido[3,2-b]indol-3-yl}-4-(^2H3)methyl-1-methyl-1H-1,2,3-triazole] | 6 | 52 | –
3 | [2H]C([2H])([2H])c1nnn(C)c1-c1cnc2c3cc(F)c(C(C)(C)O)cc3n([C@H](c3ccccc3)C3CCOCC3)c2c1 [Example 279, 2-{8-Fluoro-3-[4-(^2H3)methyl-1-methyl-1H-1,2,3-triazol-5-yl]-5-[(S)-oxan-4-yl(phenyl)methyl]-5H-pyrido[3,2-b]indol-7-yl}propan-2-ol] | 88 | 110 | –
4 | Cc1nnn(C)c1-c1cnc2c3ccc([C@](C)(O)C4CC4)c(F)c3n([C@H](c3ccccc3)C3CCOCC3)c2c1 (single isomer, unassigned) [Example 432] | 51 | 102 | –
5 | Cc1noc(C)c1-c1cnc2c3ccc(C(C)(C)O)cc3n(C(c3ccccc3)C3CCOCC3)c2c1 (single isomer, unassigned) [Example 1, 2-[3-(Dimethyl-1,2-oxazol-4-yl)-5-[oxan-4-yl(phenyl)methyl]-5H-pyrido[3,2-b]indol-7-yl]propan-2-ol] | – | – | % TGI ([2]; 5 mg/kg, 2QDx7): 88.0%; LCK ([2]; 5 mg/kg, 2QDx7): 1.0; % TGI ([2]; 15 mg/kg, 2QDx7): 104.0%; LCK ([2]; 15 mg/kg, 2QDx7): 1.2
6 | [2H]C([2H])([2H])c1nnn(C)c1-c1cnc2c3ccc([C@](C)(O)C4CC4)c(F)c3n([C@H](c3ccccc3)C3CCOCC3)c2c1 [Example 434, (1R)-1-cyclopropyl-1-{6-fluoro-3-[4-(^2H3)methyl-1-methyl-1H-1,2,3-triazol-5-yl]-5-[(5)-oxan-4-yl(phenyl)methyl]-5H-pyrido[3,2-b]indol-7-yl}ethan-1-ol] | 82 | – | –
7 | [2H]C([2H])([2H])c1nnn(C)c1-c1cnc2c3ccc(C(C)(C)O)cc3n(C(c3ccc(F)cc3)C3CCOCC3)c2c1 (stereo not shown) [Example 267] | 10 | 67 | IC50 (BRD4): < 5 nM
8 | [2H]C([2H])([2H])c1nnn(C)c1-c1cnc2c3ccc(C(C)(C)O)c(F)c3n([C@H](c3ccccc3)C3CCOCC3)c2c1 [Example 278, 2-{6-Fluoro-3-[4-(^2H3)methyl-1-methyl-1H-1,2,3-triazol-5-yl]-5-[(S)-oxan-4-yl(phenyl)methyl]-5H-pyrido[3,2-b]indol-7-yl}propan-2-ol] | 103 | 110 | –
9 | Cc1nnn(C)c1-c1cnc2c3ccc(C(C)(C)O)cc3n([C@H](c3ccccc3)C3CCOCC3)c2c1 (single isomer, unassigned) [Example 54] | – | – | % TGI ([2]; 5 mg/kg, QDx7): 100.0%; LCK ([2]; 5 mg/kg, QDx7): 0.7; % TGI ([2]; 10 mg/kg, QDx7): 102.0%; LCK ([2]; 10 mg/kg, QDx7): 0.9
10 | [2H]C([2H])([2H])c1nnn(C)c1-c1cnc2c3cc(F)c(C(C)(C)O)cc3n([C@H](c3ccccc3F)C3CCOCC3)c2c1 [Example 276, 2-{8-Fluoro-5-[(S)-(2-fluorophenyl)(oxan-4-yl)methyl]-3-[4-(^2H3)methyl-1-methyl-1H-1,2,3-triazol-5-yl]-5H-pyrido[3,2-b]indol-7-yl}propan-2-ol] | 56 | 95 | –
11 | Cc1nnn(C)c1-c1cnc2c3ccc(C(C)(O)C4CC4)c(F)c3n([C@H](c3ccccc3F)C3CCOCC3)c2c1 (single isomer, unassigned) [Example 436] | 71 | 116 | –
